Assay results as given in patent US20050037090A1, “Combination therapy including a cyclooxygenase-2 inhibitor and an antineoplastic agent” (priority 1998, published 2005).
Where two headings read alike, the source gives them in different places.

Legend:
[1] = system: HT-29 human colon cancer cells; assay: HT-29 Model, third assay (C): tumor volume, 5-FU days 14-17 with or without celecoxib or valdecoxib in the diet (Table 21); format: in vivo, mice; settings: for reduction in tumor volume: mice with HT-29 tumors, 5-FU i.p. 50 mg/kg days 14 through 17, celecoxib 1600 ppm, valdecoxib 160 ppm in the diet
Description: (§1) Mice were injected subcutaneously in the left paw (1×10^6 tumor cells suspended in 30% Matrigel) and tumor volume was evaluated using a phlethysmometer twice a week for 30-60 days. Implantation of human colon cancer cells (HT-29) into nude mice produces tumors that will reach 0.6-2 ml between 30-50 days. […] The data are expressed as the mean+/−SEM. Student's and Mann-Whitney tests were used to assess differences between means using the InStat software package.
(§2) The efficacy of both agents were determined by measuring tumor volume.

[2] = system: HT-29 human colon cancer cells; settings: mice with HT-29 tumors; 5-FU i.p. 50 mg/kg on days 12, 13, 14, 15; celecoxib in the diet
Description: as §1, §2

[3] = system: HT-29 human colon cancer cells
Description: as §1, §2

Lewis Lung tumors = assay: Lewis Lung Model: tumor volume and lung metastasis in mice; format: in vivo
Description: Mice were injected subcutaneously in the left paw (1×10^6 tumor cells suspended in 30% Matrigel) and tumor volume was evaluated using a phlethysmometer twice a week for 30-60 days. […] The data are expressed as the mean+/−SEM. Student's and Mann-Whitney tests were used to assess differences between means using the InStat software package. […] Analysis of lung metastasis was done in all the animals by counting metastasis in a stereomicroscope and by histochemical analysis of consecutive lung sections.

[4] = system: HT-29 human colon cancer cells; assay: HT-29 Model, fourth assay (D): celecoxib 10, 40 or 160 ppm in the diet from day 10 (Table 22); format: in vivo, mice; settings: celecoxib 10, 40 or 160 ppm in the diet beginning at day 10
Description: as §1

For O=c1[nH]cc(F)c(=O)[nH]1 [5-FU, 5-fluorouracil], the “reduction in tumor volume” value [1] was 35% and the “reduction of tumor volume” value [2] was 61%.

In the case of NS(=O)(=O)c1ccc(-n2nc(C(F)(F)F)cc2-c2ccc(Cl)cc2)cc1 [SC-58236], the “formation of lung metastasis” value ([3]; mice with HT-29 tumors) is reported as “completely inhibited” and the “reduction of tumor volume” value ([3]; mice with HT-29 tumors, COX-2 inhibitor in the diet) is reported as 89%.

With Cc1ccc(-c2cc(C(F)(F)F)nn2-c2ccc(S(N)(=O)=O)cc2)cc1 [celecoxib, 4-[5-(4-methylphenyl)-3-(trifluoromethyl)-1H-pyrazol-1-yl]-benzenesulfonamide] the “size of the metastasic lesions in the lung, histopathological analysis” value (Lewis Lung tumors; celecoxib in the diet) was “dose-dependently reduced”, the “reduction of surface metastasis (lung)” value (Lewis Lung tumors; celecoxib in the diet 480-3200 ppm) was “more than 50%” and the “effect on lung metastasis” value (Lewis Lung tumors; celecoxib in the diet, lower dose of 160 ppm) was “did not affect”. For the same compound, the “Tumor Volume” value ([1]; celecoxib 160 ppm in diet, day 11) was 0.05 mL, the “Tumor Volume” value ([1]; celecoxib 160 ppm in diet, day 14) was 0.13 mL and the “Tumor Volume” value ([1]; celecoxib 160 ppm in diet, day 18) was 0.17 mL. For the same compound, the “Tumor Volume” value ([1]; celecoxib 160 ppm in diet, day 21) was 0.2 mL, the “Tumor Volume” value ([1]; celecoxib 160 ppm in diet, day 28) was 0.25 mL and the “Tumor Volume” value ([1]; celecoxib 160 ppm in diet, day 35) was 0.35 mL. For the same compound, the “Tumor Volume” value ([1]; celecoxib 160 ppm in diet, day 42) was 0.52 mL, the “reduction in tumor volume” value [1] was 52% and the “reduction of tumor volume” value [2] was 68%. The “effect on HT-29 tumors, dose dependence” value [4] was “approximate dose dependent effect”.

COc1ccc2c(c1)c(CC(=O)O)c(C)n2C(=O)c1ccc(Cl)cc1 [indomethacin] was tested, and the “formation of lung metastasis” value ([3]; mice with HT-29 tumors) was “ineffective” and the “inhibition of tumor formation” value ([3]; mouse, in vivo, 2 mg/kg/day) was 77%.

Cc1onc(-c2ccccc2)c1-c1ccc(S(N)(=O)=O)cc1 [valdecoxib, 4-(5-methyl-3-phenylisoxazol-4-yl)benzenesulfonamide] was tested, and the “reduction in tumor volume” value [1] was 69%, the “Tumor Volume” value ([1]; valdecoxib 160 ppm in diet, day 11) was 0.06 mL and the “Tumor Volume” value ([1]; valdecoxib 160 ppm in diet, day 14) was 0.13 mL. For the same compound, the “Tumor Volume” value ([1]; valdecoxib 160 ppm in diet, day 18) was 0.17 mL, the “Tumor Volume” value ([1]; valdecoxib 160 ppm in diet, day 21) was 0.2 mL and the “Tumor Volume” value ([1]; valdecoxib 160 ppm in diet, day 28) was 0.25 mL. The “Tumor Volume” value ([1]; valdecoxib 160 ppm in diet, day 35) was 0.32 mL and the “Tumor Volume” value ([1]; valdecoxib 160 ppm in diet, day 42) was 0.36 mL.
